One series has as its system Monochoria vaginalis. Nature of the series: Test Example 2: herbicidal activity, application during weed generation in submerged conditions (symbol C). Type of series: in vivo. Particulars: Table 23; application herbicide amount 320 g/ha; grade 0-5 by criteria of Test Example 1. Put shortly: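 Weeds emerging under flooded conditions were treated with compound formulated as an emulsion and diluted with water to the intended herbicide amount, poured onto the surface of 4 cm standing water. Seeds had been co-sown in alluvial soil; plants grew at 25° C. to 30° C. and were assessed after 3 weeks.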

Series [1] has as its system Echinochloa crus-galli var. crus-galli. Description: Test Example 4: herbicidal effect by soil treatment (symbol H). Type of series: in vivo. Particulars: 320 g/ha. The gist of the method: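 Seeds were sown in sterilized diluvial soil, covered with about 1.5 cm of soil, and the soil surface was sprayed with a water-diluted emulsion of the compound at a predetermined rate. Plants grew in a greenhouse at 25° C. to 30° C.; effects were scored visually 3 weeks after application.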

The next series relates to Stellaria media. Nature of the series: Test Example 5: herbicidal effect by foliage application, plastic box (symbol P). Type of series: in vivo. Particulars: 320 g/ha, 3 weeks after application. The gist of the method:
(§1)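 After sowing into sterilized diluvial soil and growing two weeks under glass at 25° C. to 30° C., seedlings receive a uniform foliar spray of diluted emulsion. Damage is judged visually three weeks on.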

The next series concerns Abutilon theophrasti. Description: Test Example 5: herbicidal effect by foliage application, plastic box (symbol M). Type of series: in vivo. Particulars: 320 g/ha, 3 weeks after application. Put shortly:
as §1

For series [2], the system named is Echinochloa crus-galli var. crus-galli. Nature of the series: Test Example 5: herbicidal effect by foliage application, plastic box (symbol H). In kind it is in vivo. Particulars: 320 g/ha, 3 weeks after application. The gist of the method:
as §1

The structures appear in SMILES notation.

The melting point is the temperature, or range, at which the solid turns liquid. In the case of `Cc1cc(C)c(C2=C(O)CC(CC(=NOCC(F)(F)F)C3CC3)C2=O)c(C)c1` (stereo not drawn) [1-131], the melting point was 137 to 138 °C. Also, the “Herbicidal effect grade, C: Monochoria vaginalis” value with Monochoria vaginalis is 0 (Herbicidal ratio of 5% or lower (almost no effect)). Also, the “H: Echinochloa crus-galli var. crus-galli, herbicidal effect grade” value in series [1] is recorded as 5 (Herbicidal ratio of 90% or more (almost completely withered)). In addition, the “P: Stellaria media, herbicidal effect (criteria 0-5)” value in the series with Stellaria media is 0 (Herbicidal ratio of 5% or lower (almost no effect)). In the series on Abutilon theophrasti, the “M: Abutilon theophrasti, herbicidal effect (criteria 0-5)” value is on record as 0 (Herbicidal ratio of 5% or lower (almost no effect)). Further, in series [2], the “H: Echinochloa crus-galli var. crus-galli, herbicidal effect (criteria 0-5)” value is 4 (Herbicidal ratio of 70% or higher and lower than 90%).

For the origin of these results see patent US11000033B2, “Ketone or oxime compound, and herbicide” (NISSAN CHEMICAL CORPORATION, priority 2014, dated 2021).
